Test results taken from patent US11685739B2, “High penetration drugs and their compositions thereof for treatment of Parkinson diseases” (TECHFIELDS PHARMA CO., LTD, priority 2013, dated 2023).
Read-outs that look alike come from different tables or passages of the source.

How the values were obtained:
[1] = Penetration rates through human skin in vitro, modified Franz cells; conditions: through human skin (360-400 μm), receiving fluid pH 7.4 phosphate buffer (0.2 M)
[2] = system: motor function deficits induced by 6-OHDA in Parkinson's disease (PD) model; test: Rotarod test in rats with 6-OHDA lesion, Parkinson's disease (PD) model; format: in vivo, Sprague-Dawley rats; conditions: for Efficacy of low dose compared with moderate and high dose groups: 0.67 mg/kg transdermal (group 3) vs 2 mg and 6 mg/kg (groups 4 and 5); for Efficacy in Rotarod test comparing to vehicle group and positive control group: four-week treatment
[3] = system: motor function deficits induced by 6-OHDA in Parkinson's disease (PD) model; test: as above; format: in vivo, Sprague-Dawley rats; conditions: Example 31
Protocol: Test subjects (Sprague-Dawley rats) were prepared, grouped, and tested following the protocol below: • 1. 200 Sprague-Dawley rats (male, 200-230 g) underwent brain stereotaxic surgery after 1 week acclamation in animal facility; • 2. After anesthesia, a bur hole (1 mm in diameter) was made on skull on the left side with a motor drill based on the coordinates: AP +0.5 mm, ML −2.8 mm, DV 6.0 mm relative to Bregma; • 3. 6-OHDA (20 μg at 5 mg/mL) or sterile saline was injected into the left striatum with a microsyringe fitted with a 26-gauge steel cannula. The chemical caused the retrograde neurodegeneration in the distal substantia nigra and impairs dopamine transmission in the nigro-striatal pathway, which eventually led to functional disturbance of motor activities; • 4. Apomorphine and classic rotation test was carried out to screen animals at the end of week 3 post 6-OHDA treatment. Animals that matched lesion type and apomorphine-induced rotational scores were allotted to 11 groups; and • 5. Rats were divided into 11 groups (n=12), each group was applied with the drug(s) at the doses specified in Table 2:
• 6. Dose Formulations • (1) L-DOPA in water (3 mg/mL) was the positive control solution for group 1 (orally for group 1, transdermally for groups 2-11). The volume of administration was 2 mL/kg. Vehicle solution (negative control solution for group 2) was 30% ethanol (v/v). The volume of administration was 1286 μL/kg. Other test solutions (groups 3-11) were freshly prepared every day. • (2) Preparation method of test solutions for groups 3-5: 50.33 mg of Drug A was dissolved in 10 mL of 30% ethanol(v/v). This solution was the stock solution[(2)a]. • a. The test solution for group 5 (high dose group) of Drug A: The stock solution [(2)a] was the test solution for Group 5. The volume of administration was 1286 μL/kg. • b. The test solution for group 4 (moderate dose group) of Drug A: 3.00 mL of the stock solution [(2)a] was diluted to final volume 9.00 mL with 30% ethanol(v/v). This solution was the test solution for Group 4. The volume of administration was 1286 μL/kg. • c. […]

[4] = human, pH 7.4

Row | The cumulative amount of test compounds ([4]; 1 h) [mg] | The cumulative amount of test compounds ([4]; 2 h) [mg] | The cumulative amount of test compounds ([4]; 4 h) [mg] | The cumulative amount of test compounds ([4]; 8 h) [mg] | SMILES | further results
1 | – | – | – | – | Cl.NCCc1ccc(OC(=O)c2ccccc2)c(OC(=O)c2ccccc2)c1 [Compound-10, 4-(2-aminoethyl)-1,2-phenylene dibenzoate hydrochloride] | The cumulative amount of test compounds ([1]; 1 h): 0.68 mg; The cumulative amount of test compounds ([1]; 2 h): 1.35 mg; The cumulative amount of test compounds ([1]; 4 h): 2.74 mg; The cumulative amount of test compounds ([1]; 8 h): 5.55 mg
2 | 0.58 | 1.15 | 2.33 | 4.71 | CC(C)OC(=O)[C@@H](N)Cc1ccc(OC(=O)c2ccccc2)c(OC(=O)c2ccccc2)c1.Cl [Compound-11, (S)-4-(2-amino-3-isopropoxy-3-oxopropyl)-1,2-phenylene dibenzoate hydrochloride] | Efficacy of low dose compared with moderate and high dose groups ([2]; Example 31): much higher than that of the moderate and high dose groups; Side effects (dyskinesia at peak dose, end-of-dose deterioration of function etc.) ([3]; L-DOPA orally, pro-drug transdermally): avoided dyskinesia at peak dose, and end-of-dose deterioration of function
3 | 0.53 | 1.07 | 2.13 | 4.29 | CCCC(CCC)OC(=O)[C@@H](N)Cc1ccc(OC(=O)c2ccccc2)c(OC(=O)c2ccccc2)c1.Cl [Compound-12, (S)-4-(2-amino-3-(heptan-4-yloxy)-3-oxopropyl)-1,2-phenylene dibenzoate hydrochloride] | Efficacy of low dose compared with moderate and high dose groups ([2]; Example 36): much higher than that of the moderate and high dose groups
4 | 0.55 | 1.08 | 2.23 | 4.41 | Br.CCC(CC)OC(=O)[C@@H](N)Cc1ccc(OC(=O)C(C)C)c(OC(=O)C(C)C)c1 [Compound-15, (S)-4-(2-amino-3-oxo-3-(pentan-3-yloxy)propyl)-1,2-phenylene bis(2-methylpropanoate) hydrobromide] | Efficacy of low dose compared with moderate and high dose groups ([2]; Example 33): much higher than that of the moderate and high dose groups; Side effects (dyskinesia at peak dose, end-of-dose deterioration of function etc.) ([2]; Example 33, L-DOPA orally, pro-drug transdermally): avoided dyskinesia at peak dose, and end-of-dose deterioration of function
5 | – | – | – | – | Cl.NCCc1ccc(O)c(O)c1 [Compound-30, 4-(2-aminoethyl)benzene-1,2-diol hydrochloride] | The cumulative amount of test compounds ([1]; 1 h): 0.12 mg; The cumulative amount of test compounds ([1]; 2 h): 0.25 mg; The cumulative amount of test compounds ([1]; 4 h): 0.52 mg; The cumulative amount of test compounds ([1]; 8 h): 1.05 mg
6 | 0.001 | 0.001 | 0.002 | 0.003 | CC(=O)Oc1ccccc1C(=O)O [Compound-32, acetylsalicylic acid, reference compound] | –
7 | – | – | – | – | CC(C)Cc1ccc(C(C)C(=O)O)cc1 (centres unmarked) [Compound-33, 2-(ρ-isobutylphenyl)propionic acid] | The cumulative amount of test compounds ([1]; 1 h): 0.001 mg; The cumulative amount of test compounds ([1]; 2 h): 0.001 mg; The cumulative amount of test compounds ([1]; 4 h): 0.002 mg; The cumulative amount of test compounds ([1]; 8 h): 0.003 mg
8 | 0.001 | 0.001 | 0.002 | 0.003 | CC(C(=O)O)c1cccc(Oc2ccccc2)c1 (centres unmarked) [Compound-34, 2-(3-phenoxyphenyl) propionic acid, reference compound] | –
9 | – | – | – | – | CC(=O)O.CCN(CC)CCOC(=O)C(C)c1ccc(CC(C)C)cc1 (centres unmarked) [Drug D, 2-(diethylamino)ethyl 2-(4-isobutylphenyl)propionate acetic acid salt] | Efficacy in Rotarod test comparing to vehicle group and positive control group ([2]; Example 33, 15 mg and 45 mg/kg transdermal): good efficacy
10 | – | – | – | – | CC(C(=O)OCCCCN(C)C)c1cccc(Oc2ccccc2)c1.Cl (centres unmarked) [Drug F, 4-(dimethylamino)butyl 2-(3-phenoxyphenyl) Propionate Hydrochloride] | Efficacy in Rotarod test comparing to vehicle group and positive control group ([2]; Example 35, 20 mg and 60 mg/kg transdermal): good efficacy
11 | – | – | – | – | C[C@@](Cc1ccc(O)c(O)c1)(NN)C(=O)O [carbidopa] | Effect on efficacy of L-Dopa and pro-drug of L-Dopa (Drug A) treated groups ([2]; Example 32, carbidopa 1.5 mg/kg orally, groups 1, 3, 4, 5, 6, 7, 9, 10, 4 weeks treatment): increased efficacy; Effect on efficacy of vehicle group and pro-drug of aspirin (Drug B) treated groups ([2]; Example 32, carbidopa 1.5 mg/kg orally, groups 2, 8 and 11, 4 weeks treatment): did not change the efficacy; Effect on efficacy of L-Dopa and pro-drug of L-Dopa treated groups ([2]; Example 34, carbidopa 1.5 mg/kg orally, groups 1, 3, 4, 5, 6, 7, 9, 10 (L-DOPA, Drug C), 4 weeks treatment): increased efficacy; Effect on efficacy of vehicle group and pro-drug of ibuprofen treated groups ([2]; Example 34, carbidopa 1.5 mg/kg orally, groups 2, 8 and 11 (Drug D), 4 weeks treatment): did not change the efficacy

Row | SMILES | The cumulative amount of test compounds ([4]; 1 h) [mg] | The cumulative amount of test compounds ([4]; 2 h) [mg] | The cumulative amount of test compounds ([4]; 4 h) [mg] | The cumulative amount of test compounds ([4]; 8 h) [mg] | further results
12 | CCCN(CCC)CCOC(=O)c1cc(-c2ccc(F)cc2F)ccc1OC(C)=O.Cl [Compound-27, 2-(dipropylamino)ethyl 4-acetoxy-2′,4′-difluoro-[1,1′-biphenyl]-3-carboxylate hydrochloride] | 1.01 | 2.03 | 4.11 | 8.25 | Efficacy in Rotarod test comparing to vehicle group and positive control group ([2]; Example 36, 15 mg and 45 mg/kg transdermal): good efficacy
13 | CCN(CC)CCOC(=O)c1ccccc1OC(C)=O.Cl [Compound-29, 2-(diethylamino)ethyl 2-acetoxybenzoate hydrochloride] | 1.08 | 2.13 | 4.27 | 8.48 | Efficacy in Rotarod test comparing to vehicle group and positive control group ([3]; 30 mg and 90 mg/kg transdermal, three-week treatment): good efficacy
